The values below come from ChEMBL document CHEMBL4715867, “Amycolasporins and Dibenzoyls from Lichen-Associated Amycolatopsis hippodromi and Their Antibacterial and Anti-inflammatory Activities” (J Nat Prod, 2020).

In brackets after ≈: the same amount, converted by molar mass. Activity calls are given as the source filed them. No cut-off for these calls is given here.

As a reminder, the MIC is the least concentration at which growth counts as inhibited. A low value points to greater potency.

The subject of test [1] is RAW264.7. The experiment in a line: Inhibition of LPS-induced NO production in mouse RAW264.7 cells assessed as reduction in iNOS protein expression preincubated for 2 hrs followed by LPS-stimulation and measured after 24 hrs by Western blot analysis. It is filed as functional, cell-based. Particulars: dose 3.3-33 µM, time 26.0 hrs.
For test [2], the system named is RAW264.7. Description: Inhibition of LPS-induced NO production in mouse RAW264.7 cells preincubated for 2 hrs followed by LPS-stimulation and measured after 24 hrs by Griess reagent based assay. Type of test: functional, cell-based. To be noted: dose 3.3-33 µM, time 26.0 hrs. For orientation: The Griess reaction detects nitrite, a stable product of nitric oxide.

The subject of test [3] is Candida albicans. The experiment in a line: Antifungal activity against Candida albicans MYA-2867 at 100 ug/ml after 48 hrs by microbroth dilution method. To be noted: dose 100.0 µg/ml. It is filed as functional, organism-based.
Test [4] concerns Bacillus subtilis. The experiment in a line: Antibacterial activity against Bacillus subtilis ATCC 6633 after 24 hrs by microbroth dilution method. It is filed as functional.
The test system of test [5] is Cryptococcus neoformans. The experiment in a line: Antifungal activity against Cryptococcus neoformans ATCC 208821 at 100 ug/ml after 72 hrs by microbroth dilution method. It is filed as functional, organism-based. To be noted: dose 100.0 µg/ml. On the technique in general: Broth dilution looks for growth in wells or tubes with falling amounts of substance.
The subject of test [6] is Escherichia coli. The experiment in a line: Antibacterial activity against Escherichia coli ATCC 25922 after 24 hrs by microbroth dilution method. It is filed as functional.
Test [7] has as its system Candida parapsilosis. Description: Antifungal activity against Candida parapsilosis ATCC 22019 at 100 ug/ml after 48 hrs by microbroth dilution method. Type of test: functional, organism-based. To be noted: dose 100.0 µg/ml.
In test [8] the test system is Staphylococcus aureus. Description: Antibacterial activity against Staphylococcus aureus ATCC 25923 after 24 hrs by microbroth dilution method. Type of test: functional.

Regarding `COc1ccc(C(=O)Cc2ccc(O)cc2)c(O)c1`, the inhibition entry in test [1] and in test [2] was “Dose-dependent effect” each time.

With `CO[C@@H]1CC(=O)c2cc(C(N)=O)ncc21`, the outcome in test [3], in test [5] and in test [7] was inactive. Moreover, the minimal inhibitory concentration (MIC) in test [4], in test [6] and in test [8] was 25 mg/L (≈ 121 µM) in each case.

On to `COC(=O)[C@]1(O)C=Cc2cnc(C(N)=O)cc21`, for which the result in test [3], in test [5] and in test [7] was inactive. Besides, the minimal inhibitory concentration (MIC) in test [4], in test [6] and in test [8] was 25 mg/L (≈ 107 µM) in each case. The inhibition result in test [1] and in test [2] was “Dose-dependent effect” in each case.

In the case of `NC(=O)c1cc2c(cn1)CCC2=O`, the outcome in test [3], in test [5] and in test [7] was inactive. Further, the minimal inhibitory concentration (MIC) in test [4], in test [6] and in test [8] was 25 mg/L (≈ 142 µM) throughout.
